How the values were obtained:
Format in all cases: in vivo
[1] = test system: Phakopsora pachyrhizi; assay: Fungicidal activity against Phakopsora pachyrhizi / soybean / leaf disc preventative (Asian soybean rust); details: foliar, 200 ppm in the applied formulation, soybean leaf disks, preventative (inoculated one day after application), assessed 12 to 14 days after application, read-out: disease control compared to untreated control leaf disks
Summary of the method: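 Soybean leaf discs on water agar sprayed with formulated compound diluted in water; spore suspension sprayed on lower leaf surface one day later. Incubated 24-36 h dark at 20° C, 75% rh, then 20° C, 12 h light/day, 75% rh. Percent disease control versus untreated scored 12 to 14 days after application.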

[2] = test system: Uromyces viciae-fabae; assay: Fungicidal activity against Uromyces viciae-fabae / field bean / leaf disc preventative (faba-bean rust); details: foliar, 288 h, 100 ppm in the applied formulation, field bean leaf discs, preventative (inoculated two hours after application), assessed 12 days after application, read-out: disease control compared to untreated control leaf discs
Protocol: Leaf disks or leaf segments of various plant species are cut from plants grown in a greenhouse. The cut leaf disks or segments are placed in multiwell plates (24-well format) onto water agar. The leaf disks are sprayed with a test solution before (preventative) or after (curative) inoculation. Compounds to be tested are prepared as DMSO solutions (max. 10 mg/ml) which are diluted to the appropriate concentration with 0.025% Tween20 just before spraying. The inoculated leaf disks or segments are incubated under defined conditions (temperature, relative humidity, light, etc.) according to the respective test system. A single evaluation of disease level is carried out 3 to 14 days after inoculation, depending on the pathosystem. Percent disease control relative to the untreated check leaf disks or segments is then calculated. General Examples of Liquid Culture Tests in Well Plates:
Example 5: Fungicidal Activity Against Uromyces viciae-fabae/Field Bean/Leaf Disc Preventative (Faba-Bean Rust)
Field bean leaf discs are placed on water agar in multiwell plates (96-well format) and 10 μl of the formulated test compound diluted in acetone and a spreader pipetted onto the leaf disc. Two hours after application leaf discs are inoculated by spraying a spore suspension on the lower leaf surface. The leaf discs are incubated in a climate cabinet at 22° C. with 18 hour day and 70% relative humidity. The activity of a compound is assessed as percent disease control compared to untreated when an appropriate level of disease damage appears in untreated check leaf disks (12 days after application).
The following compounds at 100 ppm in the applied formulation give at least 80% disease control in this test when compared to untreated control leaf discs under the same conditions, which show extensive disease development.

[3] = test system: Puccinia recondita f. sp. tritici; assay: Fungicidal activity against Puccinia recondita f. sp. tritici / wheat / leaf disc preventative (brown rust); details: foliar, 200 ppm in the applied formulation, wheat leaf segments cv. Kanzler, preventative (inoculated 1 day after application), assessed 7 to 9 days after application, read-out: disease control compared to untreated control leaf disks
Summary of the method: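 Wheat cv. Kanzler leaf segments on agar sprayed with formulated compound diluted in water, inoculated with P. recondita spores 1 day later. Incubated at 19C, 75% rh, 12 h light/12 h dark; scored 7 to 9 days after application as percent disease control versus untreated segments. Test rate 200 ppm.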

| Structure (SMILES) | pest or weed control at 200 ppm [1] [%] | pest or weed control at 100 ppm [2] [%] | pest or weed control at 200 ppm [3] [%] |
| --- | --- | --- | --- |
| CC(C)(C)c1cc(NC(=O)c2ccc(-c3noc(C(F)(F)F)n3)cc2F)[nH]n1 [Compound 5b.6, N-(3-tert-butyl-1H-pyrazol-5-yl)-2-fluoro-4-[5-(trifluoromethyl)-1,2,4-oxadiazol-3-yl]benzamide] | ≥ 80 | ≥ 80 |  |
| O=C(Nc1ccccc1F)c1ccc(-c2noc(C(F)(F)F)n2)cc1 [Compound 4a.7, N-(2-fluorophenyl)-4-[5-(trifluoromethyl)-1,2,4-oxadiazol-3-yl]benzamide] | ≥ 80 | ≥ 80 |  |
| O=C(N[C@H]1CCN(Cc2ccccc2)C1)c1ccc(-c2noc(C(F)(F)F)n2)cc1 [Compound 1a.6, N-[(3S)-1-benzylpyrrolidin-3-yl]-4-[5-(trifluoromethyl)-1,2,4-oxadiazol-3-yl]benzamide] |  | ≥ 80 | ≥ 80 |
| Cc1ccc(C)c(CNC(=O)c2ccc(-c3noc(C(F)(F)F)n3)cc2)c1 [Compound 4a.11, N-[(2,5-dimethylphenyl)methyl]-4-[5-(trifluoromethyl)-1,2,4-oxadiazol-3-yl]benzamide] | ≥ 80 | ≥ 80 |  |
| CC(NC(=O)c1ccc(-c2noc(C(F)(F)F)n2)cc1Cl)C1CC1 (centres unmarked) [Compound 2b.15, 2-chloro-N-(1-cyclopropylethyl)-4-[5-(trifluoromethyl)-1,2,4-oxadiazol-3-yl]benzamide] | ≥ 80 | ≥ 80 | ≥ 80 |
| O=C(Nc1cccc(C(F)(F)F)c1)c1ccc(-c2noc(C(F)(F)F)n2)cc1 [Compound 4a.9, 4-[5-(trifluoromethyl)-1,2,4-oxadiazol-3-yl]-N-[3-(trifluoromethyl)phenyl]benzamide] | ≥ 80 | ≥ 80 |  |
| O=C(Nc1ccccc1)c1ccc(-c2noc(C(F)(F)F)n2)cc1F [Compound 4b.12, 2-fluoro-N-phenyl-4-[5-(trifluoromethyl)-1,2,4-oxadiazol-3-yl]benzamide] | ≥ 80 | ≥ 80 |  |
| CC1CCCC(NC(=O)c2ccc(-c3noc(C(F)(F)F)n3)cc2)C1 (centres unmarked) [Compound 2a.2, N-(3-methylcyclohexyl)-4-[5-(trifluoromethyl)-1,2,4-oxadiazol-3-yl]benzamide] | ≥ 80 | ≥ 80 |  |
| CCc1cccc(NC(=O)c2ccc(-c3noc(C(F)(F)F)n3)cc2)c1 [Compound 4a.10, N-(3-ethylphenyl)-4-[5-(trifluoromethyl)-1,2,4-oxadiazol-3-yl]benzamide] | ≥ 80 | ≥ 80 |  |
| O=C(NC1CCSC1)c1ccc(-c2noc(C(F)(F)F)n2)cc1F (centres unmarked) [Compound 1b.11, 2-fluoro-N-tetrahydrothiophen-3-yl-4-[5-(trifluoromethyl)-1,2,4-oxadiazol-3-yl]benzamide] |  | ≥ 80 | ≥ 80 |
| O=C(Nc1ccc(Cl)cc1)c1ccc(-c2noc(C(F)(F)F)n2)cc1 [Compound 4a.6, N-(4-chlorophenyl)-4-[5-(trifluoromethyl)-1,2,4-oxadiazol-3-yl]benzamide] | ≥ 80 | ≥ 80 |  |
| O=C(Nc1ccc(N2CCOCC2)cc1)c1ccc(-c2noc(C(F)(F)F)n2)cc1 [Compound 4a.12, N-(4-morpholinophenyl)-4-[5-(trifluoromethyl)-1,2,4-oxadiazol-3-yl]benzamide] | ≥ 80 | ≥ 80 |  |
| O=C(NC1CCN(Cc2ccccc2)CC1)c1ccc(-c2noc(C(F)(F)F)n2)cc1F [Compound 1b.3, N-(1-benzyl-4-piperidyl)-2-fluoro-4-[5-(trifuoromethyl)-1,2,4-oxadiazol-3-yl]benzamide] | ≥ 80 | ≥ 80 | ≥ 80 |
| CC(C)(C)c1cc(NC(=O)c2ccc(-c3noc(C(F)(F)F)n3)cc2)[nH]n1 [Compound 5a.2, N-(3-tert-butyl-1H-pyrazol-5-yl)-4-[5-(trifluoromethyl)-1,2,4-oxadiazol-3-yl]benzamide] | ≥ 80 | ≥ 80 |  |
| COc1ccc(CNC(=O)c2ccc(-c3noc(C(F)(F)F)n3)cc2F)c(OC)c1 [Compound 4b.14, N-[(2,4-dimethoxyphenyl)methyl]-2-fluoro-4-[5-(trifluoromethyl)-1,2,4-oxadiazol-3-yl]benzamide] |  | ≥ 80 | ≥ 80 |
| C[C@@H](NC(=O)c1ccc(-c2noc(C(F)(F)F)n2)cc1)C1CCCCC1 [Compound 2a.8, N-[(1R)-1-cyclohexylethyl]-4-[5-(trifluoromethyl)-1,2,4-oxadiazol-3-yl]benzamide] | ≥ 80 | ≥ 80 |  |
| CCOC(=O)N1CCC(NC(=O)c2ccc(-c3noc(C(F)(F)F)n3)cc2F)CC1 [Compound 1b.4, ethyl 4-[[2-fluoro-4-[5-(trifluoromethyl)-1,2,4-oxadiazol-3-yl]benzoyl]amino]piperidine-1-carbonylate] |  | ≥ 80 | ≥ 80 |
| CN(CC1CCCCN1C)C(=O)c1ccc(-c2noc(C(F)(F)F)n2)cc1 (centres unmarked) [Compound 1a.10, N-methyl-N-[(1-methyl-2-piperidyl)methyl]-4-[5-(trifluoromethyl)-1,2,4-oxadiazol-3-yl]benzamide] |  | ≥ 80 | ≥ 80 |
| CC1CCCC(NC(=O)c2ccc(-c3noc(C(F)(F)F)n3)cc2F)C1 (centres unmarked) [Compound 2b.10, 2-fluoro-N-(3-methylcyclohexyl)-4-[5-(trifluoromethyl)-1,2,4-oxadiazol-3-yl]benzamide] |  | ≥ 80 | ≥ 80 |
| CC(C)(C)OC(=O)N1CCC(CNC(=O)c2ccc(-c3noc(C(F)(F)F)n3)cc2)CC1 [Compound 1a.11, tert-butyl 4-[[[4-[5-(trifluoromethyl)-1,2,4-oxadiazol-3-yl]benzoyl]amino]methyl]piperidine-1-carboxylate] |  | ≥ 80 | ≥ 80 |
| O=C(NCC1CC(F)(F)C1(F)F)c1ccc(-c2noc(C(F)(F)F)n2)cc1Cl (centres unmarked) [Compound 2b.14, 2-chloro-N-[(2,2,3,3-tetrafluorocyclo-butyl)methyl]-4-[5-(trifluoromethyl)-1,2,4-oxadiazol-3-yl]benzamide] |  | ≥ 80 | ≥ 80 |
| O=C(Nc1ccc(F)cc1)c1ccc(-c2noc(C(F)(F)F)n2)cc1 [Compound 4a.8, N-(4-fluorophenyl)-4-[5-(trifluoromethyl)-1,2,4-oxadiazol-3-yl]benzamide] | ≥ 80 | ≥ 80 |  |
| O=C(NC1CCCCCCC1)c1ccc(-c2noc(C(F)(F)F)n2)cc1 [Compound 2a.5, N-cyclooctyl-4-[5-(trifluoromethyl)-1,2,4-oxadiazol-3-yl]benzamide] | ≥ 80 | ≥ 80 |  |
| O=C(NC1(C2CC2)CC1)c1ccc(-c2noc(C(F)(F)F)n2)cc1Cl [Compound 2b.16, 2-chloro-N-(1-cyclopropylcyclo-propyl)-4-[5-(trifluoromethyl)-1,2,4-oxadiazol-3-yl]benzamide] |  | ≥ 80 | ≥ 80 |
| CN(C(=O)c1ccc(-c2noc(C(F)(F)F)n2)cc1F)C1CCSC1 (centres unmarked) [Compound 1b.8, 2-fluoro-N-methyl-N-tetrahydrothiophen-3-yl-4-[5-(trifluoromethyl)-1,2,4-oxadiazol-3-yl]benzamide] |  | ≥ 80 | ≥ 80 |
| O=C(NCc1ccc(F)c(Br)c1)c1ccc(-c2noc(C(F)(F)F)n2)cc1F [Compound 4b.13, N-[(3-bromo-4-fluoro-phenyl)methyl]-2-fluoro-4-[5-(trifluoromethyl)-1,2,4-oxadiazol-3-yl]benzamide] |  | ≥ 80 | ≥ 80 |
| O=C(NCCCn1ccnc1)c1ccc(-c2noc(C(F)(F)F)n2)cc1F [Compound 5b.12, 2-fluoro-N-(3-imidazol-1-ylpropyl)-4-[5-(trifluoromethyl)-1,2,4-oxadiazol-3-yl]benzamide] | ≥ 80 | ≥ 80 |  |
